Common to all, as to type: biochemical
The target in one assay is T1, NUAK1 (Homo sapiens, UniProt O60285).
T1 sequence (O60285 1-661): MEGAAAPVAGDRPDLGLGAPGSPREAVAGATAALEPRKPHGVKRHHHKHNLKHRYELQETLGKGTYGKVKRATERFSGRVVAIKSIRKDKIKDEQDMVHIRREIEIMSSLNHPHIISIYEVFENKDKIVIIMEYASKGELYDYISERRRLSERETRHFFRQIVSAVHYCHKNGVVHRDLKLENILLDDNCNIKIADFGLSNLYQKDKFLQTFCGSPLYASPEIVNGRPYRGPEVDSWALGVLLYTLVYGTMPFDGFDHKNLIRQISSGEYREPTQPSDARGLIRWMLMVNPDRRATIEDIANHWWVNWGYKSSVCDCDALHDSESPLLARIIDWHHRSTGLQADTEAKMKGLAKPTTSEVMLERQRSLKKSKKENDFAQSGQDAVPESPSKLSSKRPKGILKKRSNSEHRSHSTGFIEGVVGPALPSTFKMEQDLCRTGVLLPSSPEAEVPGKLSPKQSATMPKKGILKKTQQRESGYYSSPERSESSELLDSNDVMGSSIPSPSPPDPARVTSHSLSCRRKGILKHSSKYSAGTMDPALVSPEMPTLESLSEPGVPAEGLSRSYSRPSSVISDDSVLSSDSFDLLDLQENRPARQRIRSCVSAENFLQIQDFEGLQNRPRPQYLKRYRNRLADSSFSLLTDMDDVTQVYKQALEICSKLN
The assay is described as follows: NUAK1 counter screen. In short, it runs like this: (§1)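 Radiometric assay with full-length recombinant NUAK2 in 8 mM MOPS pH 7.0, 0.2 mM EDTA, 10 mM magnesium acetate, 300 μM peptide substrate and [33P]-ATP, 40 min at room temperature. Phosphoric acid stop, filter capture, scintillation counting. Aurora A and NUAK1 used as counter screens.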
For orientation: Counterscreens check selectivity or assay interference.

Another assay has as its target T2, Aurora A (Homo sapiens, UniProt O14965).
T2 sequence (O14965 1-403): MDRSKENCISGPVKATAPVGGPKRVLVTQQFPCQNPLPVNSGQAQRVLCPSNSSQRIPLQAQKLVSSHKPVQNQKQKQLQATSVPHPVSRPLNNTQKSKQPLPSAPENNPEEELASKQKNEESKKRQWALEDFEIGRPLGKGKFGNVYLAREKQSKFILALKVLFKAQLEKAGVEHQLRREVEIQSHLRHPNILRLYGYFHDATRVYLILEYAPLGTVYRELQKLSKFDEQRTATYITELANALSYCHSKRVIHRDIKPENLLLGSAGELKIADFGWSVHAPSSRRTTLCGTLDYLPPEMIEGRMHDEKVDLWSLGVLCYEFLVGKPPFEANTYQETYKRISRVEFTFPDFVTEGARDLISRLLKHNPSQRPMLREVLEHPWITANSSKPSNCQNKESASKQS
The assay is described as follows: Aurora A counter screen. Particulars: read-out: AUR-A (IC50). In short, it runs like this:
as §1

In the next assay the target is T3, NUAK2 (h) (Homo sapiens, UniProt Q9H093).
T3 construct: This assay was done radiometrically using full-length, recombinant enzyme; purchased Eurofins
T3 sequence (Q9H093 1-628): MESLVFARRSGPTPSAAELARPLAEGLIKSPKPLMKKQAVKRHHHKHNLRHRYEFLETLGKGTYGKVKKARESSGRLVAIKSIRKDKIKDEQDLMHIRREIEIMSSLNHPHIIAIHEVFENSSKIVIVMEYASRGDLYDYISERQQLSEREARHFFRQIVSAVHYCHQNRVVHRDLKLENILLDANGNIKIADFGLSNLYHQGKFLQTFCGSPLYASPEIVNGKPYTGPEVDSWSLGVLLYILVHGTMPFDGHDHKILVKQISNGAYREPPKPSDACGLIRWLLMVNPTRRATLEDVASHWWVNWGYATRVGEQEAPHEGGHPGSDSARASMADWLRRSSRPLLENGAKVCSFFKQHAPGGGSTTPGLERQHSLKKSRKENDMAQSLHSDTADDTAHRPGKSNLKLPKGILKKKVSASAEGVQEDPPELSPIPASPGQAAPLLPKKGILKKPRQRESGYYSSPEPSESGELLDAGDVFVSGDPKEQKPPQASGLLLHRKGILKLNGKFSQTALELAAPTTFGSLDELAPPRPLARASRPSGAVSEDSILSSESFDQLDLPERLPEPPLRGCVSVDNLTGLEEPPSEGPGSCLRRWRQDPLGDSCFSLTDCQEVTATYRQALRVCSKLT
Nature of the assay: NUAK2 enzymatic assay (radiometric, Eurofins). Particulars: for IC50: radiometric, full-length recombinant enzyme. Summed up:
as §1

The record followed here is patent publication US20240025887A1, “THIENYL AND CYCLOALKYL AMINOPYRIMIDINE COMPOUNDS AS INHIBITORS OF NUAK KINASES, COMPOSITIONS AND USES THEREOF” (Ontario Institute for Cancer Research (OICR), priority 2021, published 2024).

As usually defined, the IC50 is the midpoint of a concentration-inhibition curve.

Molecules are shown by their SMILES.

With `NC(=O)c1sccc1Nc1nc(Nc2ccc(N3CCCC3)cc2OC(F)F)ncc1Cl` [Compound I-28, 3-((5-chloro-2-((2-(difluoromethoxy)-4-(pyrrolidin-1-yl)phenyl)amino)pyrimidin-4-yl)amino)thiophene-2-carboxamide], the IC50 against NUAK1 was 11 to 100 nM; at Aurora A, 101 to 1000 nM; on NUAK2 (h), 101 to 1000 nM.

Consider `C[C@H]1CN(C)CCN1c1ccc(Nc2ncc(Cl)c(Nc3ccsc3C(N)=O)n2)c(OC(F)F)c1` [Compound I-29, (S)-3-((5-chloro-2-((2-(difluoromethoxy)-4-(2,4-dimethylpiperazin-1-yl)phenyl)amino)pyrimidin-4-yl)amino)thiophene-2-carboxamide], for which the results for the IC50 at NUAK1, on Aurora A and on NUAK2 (h) were 11 to 100 nM, 101 to 1000 nM and 11 to 100 nM, respectively.

As for `NC(=O)c1ccsc1Nc1nc(Nc2ccc(N3CCCC3)cc2OC(F)F)ncc1Cl` [Compound I-31, 2-((5-chloro-2-((2-(difluoromethoxy)-4-(pyrrolidin-1-yl)phenyl)amino)pyrimidin-4-yl)amino)thiophene-3-carboxamide], the IC50 was 101 to 1000 nM against NUAK1, above 1000 nM at Aurora A and above 1000 nM on NUAK2 (h).

For the compound `CN1C2CCC1CN(c1ccc(Nc3ncc(Cl)c(Nc4sccc4C(N)=O)n3)c(OC(F)F)c1)C2` [Compound I-32, 2-((5-chloro-2-((2-(difluoromethoxy)-4-(8-methyl-3,8-diazabicyclo[3.2.1]octan-3-yl)phenyl)amino)pyrimidin-4-yl)amino)thiophene-3-carboxamide], the IC50 on NUAK1 lay in the range of 11 to 100 nM; at Aurora A, 101 to 1000 nM; on NUAK2 (h), 11 to 100 nM.

Regarding `NC(=O)c1sccc1Nc1nc(Nc2ccc(N3CCN(CC(F)(F)F)CC3)cc2OC(F)F)ncc1Cl` [Compound I-33, 3-((5-chloro-2-((2-(difluoromethoxy)-4-(4-(2,2,2-trifluoroethyl)piperazin-1-yl)phenyl)amino)pyrimidin-4-yl)amino)thiophene-2-carboxamide], the IC50 at NUAK1, at Aurora A and at NUAK2 (h) was 101 to 1000 nM in each case.

With `NC(=O)c1ccsc1Nc1nc(Nc2ccc(N3CCN(CC(F)(F)F)CC3)cc2OC(F)F)ncc1Cl` [Compound I-34, 2-((5-chloro-2-((2-(difluoromethoxy)-4-(4-(2,2,2-trifluoroethyl)piperazin-1-yl)phenyl)amino)pyrimidin-4-yl)amino)thiophene-3-carboxamide], the IC50 against NUAK1, on Aurora A and on NUAK2 (h) was 101 to 1000 nM throughout.

Take `CN1CCN(c2ccc(Nc3ncc(F)c(Nc4ccsc4C(N)=O)n3)c(OC(F)F)c2)CC1` [Compound I-37, 3-((2-((2-(difluoromethoxy)-4-(4-methylpiperazin-1-yl)phenyl)amino)-5-fluoropyrimidin-4-yl)amino)thiophene-2-carboxamide]: the IC50 against NUAK1 lay in the range of 11 to 100 nM; at Aurora A it was 101 to 1000 nM; at NUAK2 (h) it was 11 to 100 nM.

With `NC(=O)c1sccc1Nc1nc(Nc2ccc(N3CCOCC3)cc2OC(F)F)ncc1C(F)(F)F` [Compound I-39, 3-((2-((2-(difluoromethoxy)-4-morpholinophenyl)amino)-5-(trifluoromethyl)pyrimidin-4-yl)amino)thiophene-2-carboxamide], the IC50 was 11 to 100 nM on NUAK1, 101 to 1000 nM at Aurora A and 11 to 100 nM on NUAK2 (h).

Consider `CN1CCN(C2CCN(c3ccc(Nc4ncc(Cl)c(Nc5ccsc5C(N)=O)n4)c(OC(F)F)c3F)CC2)CC1` [Compound I-40, 3-((5-chloro-2-((2-(difluoromethoxy)-3-fluoro-4-(4-(4-methylpiperazin-1-yl)piperidin-1-yl)phenyl)amino)pyrimidin-4-yl)amino)thiophene-2-carboxamide], for which the IC50 against NUAK1 is 101 to 1000 nM; on Aurora A it was above 1000 nM; on NUAK2 (h) it was 101 to 1000 nM.

As to `NC(=O)c1sccc1Nc1nc(Nc2ccc(N3CCC(N4CCOCC4)CC3)cc2OC(F)F)ncc1Cl` [Compound I-43, 3-((5-chloro-2-((2-(difluoromethoxy)-4-(4-morpholinopiperidin-1-yl)phenyl)amino)pyrimidin-4-yl)amino)thiophene-2-carboxamide], the IC50 against NUAK1 fell in the range of 11 to 100 nM; on Aurora A, 101 to 1000 nM; at NUAK2 (h), 0.1 to 10 nM.

With `NC(=O)c1sccc1Nc1nc(Nc2ccc(N3CCN4CCC[C@@H]4C3)cc2OC(F)F)ncc1Cl` [Compound I-44, (R)-3-((5-chloro-2-((2-(difluoromethoxy)-4-(hexahydropyrrolo[1,2-a]pyrazin-2(1H)-yl)phenyl)amino)pyrimidin-4-yl)amino)thiophene-2-carboxamide], the IC50 against NUAK1 was in the range of 11 to 100 nM; on Aurora A it was 101 to 1000 nM; on NUAK2 (h), 0.1 to 10 nM. Also, at NUAK2 (h) (NUAK2 selectivity over Aurora-A, ratio of IC50s), the “AUR-A (IC50, nM)/NUAK2 (IC50, nM)” value was 137.

For the compound `NC(=O)c1sccc1Nc1nc(Nc2ccc(N3CCN4CCOC[C@H]4C3)cc2OC(F)F)ncc1Cl` [Compound I-45, (R)-3-((5-chloro-2-((2-(difluoromethoxy)-4-(hexahydropyrazino[2,1-c][1,4]oxazin-8(1H)-yl)phenyl)amino)pyrimidin-4-yl)amino)thiophene-2-carboxamide], the figures for the IC50 against NUAK1, at Aurora A and on NUAK2 (h) were 11 to 100 nM, 101 to 1000 nM and 11 to 100 nM, respectively.

In the case of `CN1CCN(c2ccc(Nc3ncc(Cl)c(Nc4ccsc4C(N)=O)n3)c(C(F)(F)F)c2)CC1` [Compound I-46, 3-((5-chloro-2-((4-(4-methylpiperazin-1-yl)-2-(trifluoromethyl)phenyl)amino)pyrimidin-4-yl)amino)thiophene-2-carboxamide], the values for the IC50 against NUAK1, at Aurora A and at NUAK2 (h) were 11 to 100 nM, above 1000 nM and 11 to 100 nM, respectively.

For the compound `CN(C)C1CCN(c2ccc(Nc3ncc(Cl)c(Nc4ccsc4C(N)=O)n3)c(OC(F)F)c2)CC1` [Compound I-47, 3-((5-chloro-2-((2-(difluoromethoxy)-4-(4-(dimethylamino)piperidin-1-yl)phenyl)amino)pyrimidin-4-yl)amino)thiophene-2-carboxamide], the IC50 was 0.1 to 10 nM on NUAK1, 11 to 100 nM on Aurora A and 11 to 100 nM on NUAK2 (h).

In the case of `NC(=O)c1sccc1Nc1nc(Nc2ccc(N3CCC(N4CCCC4)CC3)cc2OC(F)F)ncc1Cl` [Compound I-48, 3-((5-chloro-2-((2-(difluoromethoxy)-4-(4-(pyrrolidin-1-yl)piperidin-1-yl)phenyl)amino)pyrimidin-4-yl)amino)thiophene-2-carboxamide], the IC50 is 0.1 to 10 nM against NUAK1, 11 to 100 nM at Aurora A and 0.1 to 10 nM on NUAK2 (h).

Regarding `NC(=O)c1sccc1Nc1nc(Nc2ccc(N3CCN4CCOC[C@@H]4C3)cc2OC(F)F)ncc1Cl` [Compound I-49, (S)-3-((5-chloro-2-((2-(difluoromethoxy)-4-(hexahydropyrazino[2,1-c][1,4]oxazin-8(1H)-yl)phenyl)amino)pyrimidin-4-yl)amino)thiophene-2-carboxamide], the IC50 against NUAK1 lay within 11 to 100 nM; at Aurora A it was 101 to 1000 nM; on NUAK2 (h) it was 11 to 100 nM.
